According to ChEMBL document CHEMBL1144192, “Synthesis and activity of 1-(3-amino-1-phenylpropyl)indolin-2-ones: a new class of selective norepinephrine reuptake inhibitors” (Bioorg Med Chem Lett, 2008):

Experiments:
[1] = target: Sodium-dependent dopamine transporter (Homo sapiens) (UniProt Q01959); assay: Displacement of [3H]WIN-35428 from human recombinant DAT expressed in CHO cells at 1 uM; format: cell-based
[2] = target: Sodium-dependent noradrenaline transporter (Homo sapiens, UniProt P23975)
Description: Inhibition of norepinephrine uptake at human NET expressed in MDCK cells

[3] = target: Sodium-dependent serotonin transporter (Homo sapiens, UniProt P31645); format: cell-based, JAR
Sodium-dependent serotonin transporter, sequence (P31645 whole entry): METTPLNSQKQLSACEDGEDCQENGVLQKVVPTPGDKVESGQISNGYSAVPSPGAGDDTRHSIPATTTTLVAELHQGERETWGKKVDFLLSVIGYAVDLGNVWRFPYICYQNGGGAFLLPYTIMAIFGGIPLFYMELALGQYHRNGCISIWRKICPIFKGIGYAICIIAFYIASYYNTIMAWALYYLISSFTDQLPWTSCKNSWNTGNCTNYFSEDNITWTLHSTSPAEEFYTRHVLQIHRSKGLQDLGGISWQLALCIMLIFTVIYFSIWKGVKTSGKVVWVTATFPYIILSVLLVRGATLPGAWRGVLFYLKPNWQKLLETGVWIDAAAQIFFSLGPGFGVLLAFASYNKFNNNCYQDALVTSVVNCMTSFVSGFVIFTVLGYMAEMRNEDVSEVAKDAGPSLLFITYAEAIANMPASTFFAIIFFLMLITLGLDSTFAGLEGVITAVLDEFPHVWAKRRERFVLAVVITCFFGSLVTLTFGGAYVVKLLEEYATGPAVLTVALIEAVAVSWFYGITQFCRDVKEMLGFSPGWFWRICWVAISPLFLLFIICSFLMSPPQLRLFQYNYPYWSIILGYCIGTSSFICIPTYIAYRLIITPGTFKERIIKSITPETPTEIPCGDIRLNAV
Description: Inhibition of serotonin uptake at human SERT expressed in JAR cells

Sodium-dependent dopamine transporter (Homo sapiens), sequence (Q01959 whole entry): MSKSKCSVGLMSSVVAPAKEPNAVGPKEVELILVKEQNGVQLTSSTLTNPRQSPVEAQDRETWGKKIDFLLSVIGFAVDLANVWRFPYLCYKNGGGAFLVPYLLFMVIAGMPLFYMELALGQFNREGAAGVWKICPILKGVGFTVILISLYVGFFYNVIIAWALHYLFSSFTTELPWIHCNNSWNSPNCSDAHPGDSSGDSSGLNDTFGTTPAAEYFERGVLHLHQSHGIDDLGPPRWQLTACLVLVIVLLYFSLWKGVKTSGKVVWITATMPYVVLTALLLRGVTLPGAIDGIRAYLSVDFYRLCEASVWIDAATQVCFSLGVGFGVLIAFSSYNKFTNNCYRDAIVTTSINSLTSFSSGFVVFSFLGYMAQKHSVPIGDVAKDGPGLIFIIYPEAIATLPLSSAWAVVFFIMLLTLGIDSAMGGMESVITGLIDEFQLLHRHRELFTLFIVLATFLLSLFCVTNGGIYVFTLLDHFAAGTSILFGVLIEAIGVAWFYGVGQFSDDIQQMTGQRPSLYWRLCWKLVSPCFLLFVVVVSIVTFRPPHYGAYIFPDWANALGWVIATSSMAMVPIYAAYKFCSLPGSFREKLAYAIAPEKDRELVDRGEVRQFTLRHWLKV
Sodium-dependent noradrenaline transporter, sequence (P23975 whole entry): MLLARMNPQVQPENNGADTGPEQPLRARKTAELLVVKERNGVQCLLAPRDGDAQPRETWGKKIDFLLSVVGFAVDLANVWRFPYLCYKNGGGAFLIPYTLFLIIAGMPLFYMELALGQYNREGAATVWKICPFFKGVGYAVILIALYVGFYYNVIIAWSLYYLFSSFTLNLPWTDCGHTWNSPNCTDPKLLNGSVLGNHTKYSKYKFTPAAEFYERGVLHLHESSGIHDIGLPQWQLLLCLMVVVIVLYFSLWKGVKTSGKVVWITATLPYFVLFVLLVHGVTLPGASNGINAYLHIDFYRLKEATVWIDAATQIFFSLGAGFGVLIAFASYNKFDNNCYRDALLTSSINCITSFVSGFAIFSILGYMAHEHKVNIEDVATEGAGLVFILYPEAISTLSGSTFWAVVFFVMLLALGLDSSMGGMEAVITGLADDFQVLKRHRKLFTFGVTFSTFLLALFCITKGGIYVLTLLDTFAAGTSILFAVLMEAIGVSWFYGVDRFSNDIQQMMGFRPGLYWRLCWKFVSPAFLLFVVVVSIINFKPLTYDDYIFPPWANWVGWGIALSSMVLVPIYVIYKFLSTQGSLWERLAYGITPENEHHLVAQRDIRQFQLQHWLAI

An Activity [1] of 1%, an IC50 [2] of over 3000 nM and an IC50 [3] of 1150 nM were found for CNCC[C@@H](c1cccc(F)c1)N1C(=O)C2(CCCCC2)c2ccccc21 in this work.

An Activity [1] of 7%, an IC50 [2] of 14 nM and an IC50 [3] of 2550 nM were found for CNCC[C@H](c1cccc(F)c1)N1C(=O)C(C)(C)c2cccc(F)c21 in this work.

An Activity [1] of 0%, an IC50 [2] of 7 nM and an IC50 [3] of 1350 nM were found for CNCC[C@H](c1ccccc1)N1C(=O)C(C)(C)c2ccccc21 in this work.

An Activity [1] of 3%, an IC50 [2] of over 3000 nM and an IC50 [3] of 1950 nM were found for CNCC[C@@H](c1ccccc1)N1C(=O)C(C)(C)c2ccccc21 in this work.

An Activity [1] of 0%, an IC50 [2] of 6 nM and an IC50 [3] of 330 nM were found for CNCC[C@H](c1cc(F)cc(F)c1)N1C(=O)C(C)(C)c2cccc(F)c21 in this work.

An Activity [1] of 26%, an IC50 [2] of 53 nM and an IC50 [3] of over 3000 nM were found for CNCC[C@H](c1ccccc1)N1C(=O)C2(CCCCC2)c2ccccc21 in this work.

An Activity [1] of 0%, an IC50 [2] of over 3000 nM and an IC50 [3] of 1750 nM were found for CNCC[C@@H](c1ccccc1)N1C(=O)C2(CCCCC2)c2ccccc21 in this work.

An Activity [1] of 10%, an IC50 [2] of 7 nM and an IC50 [3] of 290 nM were found for CNCC[C@H](c1cccc(Cl)c1)N1C(=O)C(C)(C)c2cccc(F)c21 in this work.

An Activity [1] of 44%, an IC50 [2] of 47 nM and an IC50 [3] of 327 nM were found for CNCCC(c1ccccc1)n1ccc2ccccc21 (configuration not stated) in this work.

An Activity [1] of 3%, an IC50 [2] of 175 nM and an IC50 [3] of over 3000 nM were found for CNCC[C@H](c1ccccc1)N1C(=O)C(C)(C)c2cccc(F)c21 in this work.

An Activity [1] of 20%, an IC50 [2] of 26 nM and an IC50 [3] of over 3000 nM were found for CNCC[C@H](c1cccc(F)c1)N1C(=O)C2(CCCCC2)c2ccccc21 in this work.

An IC50 [3] of 277 nM was found for CNCCC(Oc1ccccc1OC)c1ccccc1 (configuration not stated) [NISOXETINE] in this work.

An Activity [1] of 0%, an IC50 [2] of 19 nM and an IC50 [3] of over 3000 nM were found for CNCC[C@H](c1cc(F)cc(Cl)c1)N1C(=O)C(C)(C)c2cccc(F)c21 in this work.
